Measurements: patent US6825209B2, “Compounds having unique CB1 receptor binding selectivity and methods for their production and use” (Research Triangle Institute, priority 2002, dated 2004)
pEC50, pKi: −log10 of the molar value. Read-outs that look alike come from different tables or passages of the source.

What was measured:
[1] = target: T1, G-protein-linked cannabinoid receptors (Rattus norvegicus, UniProt P20272); assay: GTP-γ-[35S] binding in whole rat brain; format: biochemical; settings: for Emax: read-out: Emax, GTP-γ-[35S] in Whole Rat Brain; for pEC50: inverse agonist/antagonist activity
T1 construct: tissue Charles River or Pel-Freez Biologicals; host or cells: whole rat brain crude membrane homogenate
Description: Cannabinoid receptor-mediated alteration in GTP-γ-[^35S] binding.
Introduction. The purpose of this assay was to characterize the functional activity of lead compounds identified by the radioligand competition binding assays described above. Data from the GTP-γ-[^35S] binding assay was used to determine if a compound was an agonist, antagonist or inverse agonist at G-protein-linked cannabinoid receptors. Agonist binding to a G-protein-linked receptor results in an increased affinity of the G-protein α-subunit for GTP relative to GDP. Eventually, an active αGTP complex forms to complete the stimulus-effector coupling. The α-subunit has intrinsic GTPase activity which generates a free α-subunit which can recombine with the β- and γ-subunits readying the G-protein for another signal transduction cycle. In the current assay, GTP-γ-[^35S] cannot be hydrolyzed by the α-subunit. Thus, the amount of bound GTP-γ-[^35S] is a marker for G-protein activation. In this assay, an agonist increases basal GTP-γ-[^35S] binding, an inverse agonist decreases basal binding and basal binding would be unaffected by an antagonist.
Experimental Design. The specific binding of GTP-γ-[^35S], in the absence of test compound, was termed “basal” activity. Test compounds were characterized as agonist, antagonist, or inverse agonist based on their effect on basal activity. […] The concentrations spanned two orders of magnitude because affinity may not be related to efficacy. […] Effects of the test compounds are reported as the percent change from basal. More thorough dose-response analysis may be run to determine, for example, if a compound is a full or partial agonist.
Methods. […] In a final volume of 0.5 mL, each assay tube contained: 0.02 mg crude membrane homogenate (0.1 mL), 200 μM GDP (0.05 mL; to reduce basal G-protein activity), 0.1 nM GTP-γ-[^35S] (0.05 mL) and several concentrations of test compound (0.05 mL) or an equivalent volume of vehicle (used for determination of total binding). Nonspecific binding was determined in the presence of 100 μM unlabeled GTP-γ-S (0.05 mL). Duplicate samples were incubated for 1 h at 30° C. Since this assay is amenable for use with high throughput screening methods, the binding assays were run using a 96-well plate format. Specific binding was calculated as total binding-nonspecific binding.

CB1 receptor = target: T2, CB1 receptor (Rattus norvegicus, UniProt P20272); assay: Radioligand displacement in whole rat brain (CB1) membrane preparations; format: binding; settings: Tables 1 and 2
T2 construct: Whole rat brains or dissected regions from live CD rats; tissue Charles River or Pel-Freez Biologicals; host or cells: whole rat brain (CD rats), P2 membrane
Summary of the method: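 Washed P2 membranes from whole rat brain (ca. 0.2 mg/mL) in 50 mM Tris.HCl, 1 mM EDTA, 3 mM MgCl2, pH 7.4 were incubated with radioligand and compound for 1 h at 30 °C, then filtered. IC50 values came from one- or two-site nonlinear fits and were converted to Ki by Cheng-Prusoff. Duplicates were run across 3–6 experiments.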

[2] = whole rat brain membranes, effects reported as percent change from basal
[3] = whole rat brain membranes, read-out: EC50, GTP-γ-[35S] in Whole Rat Brain
[4] = Ki, displacement of 3H-WIN55212-2, whole rat brain membranes, radioligand 3H-WIN55212-2
[5] = read-out: Ki, displacement of 3H-CP55940, whole rat brain membranes, radioligand 3H-CP55940
[6] = read-out: Ki, displacement of 3H-SR141716A, whole rat brain membranes, radioligand 3H-SR141716A
[7] = whole rat brain membranes, radioligand 3H-CP55940
[8] = whole rat brain membranes, radioligand 3H-SR141716A
[9] = whole rat brain membranes, radioligand 3H-WIN55212-2

T1 sequence (P20272 whole entry): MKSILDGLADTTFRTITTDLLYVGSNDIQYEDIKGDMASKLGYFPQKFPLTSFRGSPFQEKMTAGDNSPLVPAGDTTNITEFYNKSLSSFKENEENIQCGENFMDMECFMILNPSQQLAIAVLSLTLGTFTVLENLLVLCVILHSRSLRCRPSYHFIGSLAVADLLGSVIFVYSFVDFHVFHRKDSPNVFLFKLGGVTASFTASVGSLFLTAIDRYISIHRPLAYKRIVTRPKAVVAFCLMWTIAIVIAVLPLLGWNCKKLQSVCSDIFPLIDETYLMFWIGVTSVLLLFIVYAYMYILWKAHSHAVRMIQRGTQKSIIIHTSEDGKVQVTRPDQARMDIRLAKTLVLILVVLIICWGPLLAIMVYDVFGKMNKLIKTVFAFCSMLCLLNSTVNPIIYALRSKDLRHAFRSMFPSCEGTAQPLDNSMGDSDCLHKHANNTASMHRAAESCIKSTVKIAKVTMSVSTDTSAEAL
T2 sequence (P20272 whole entry): as above

Row | SMILES | Emax [1, 2] | pEC50 [1, 3] | pKi (CB1 receptor; [4]) | pKi (CB1 receptor; [5]) | pKi (CB1 receptor; [6]) | Max. Disp. %, 3H-CP55940 (CB1 receptor; [7]) | Max. Disp. %, 3H-SR141716A (CB1 receptor; [8]) | Max. Disp. %, 3H-WIN55212-2 (CB1 receptor; [9]) | pEC50 ([1]; EC50, GTP-γ-[35S] in Whole Rat Brain, whole rat brain membranes) | Emax [1] | pKi (CB1 receptor; Ki, displacement of 3H-CP55940, whole rat brain membranes, radioligand 3H-CP55940) | pKi (CB1 receptor; Ki, displacement of 3H-SR141716A, whole rat brain membranes, radioligand 3H-SR141716A)
1 | Cc1c(C(=O)NCC(C)C)nn(-c2ccc(Cl)cc2Cl)c1-c1ccc(Cl)cc1 [MF9725-68-10] | -11% | 5.12 | 7.33 | 7.94 | 8.04 | 96.7% | 100% | 90.9% | – | – | – | –
2 | Cc1c(C(=O)NN2CCOCC2)nn(-c2ccc(Cl)cc2Cl)c1-c1ccc(Cl)cc1 [MF9725-33D] | -76.3% | 4.41 | – | 7.64 | 7.68 | 96.2% | 100% | – | – | – | – | –
3 | Cc1c(C(=O)NC(C)C)nn(-c2ccc(Cl)cc2Cl)c1-c1ccc(Cl)cc1 [MF9725-65-11] | -46.4% | 4.80 | 7.44 | 7.53 | 7.89 | 88.3% | 100% | 90.6% | – | – | – | –
4 | CCCCNC(=O)c1nn(-c2ccc(Cl)cc2Cl)c(-c2ccc(Cl)cc2)c1C [MF9725-64-17] | -38.5% | 5.07 | 7.48 | 7.87 | 7.89 | 91.9% | 100% | 90.8% | – | – | – | –
5 | CCCCCCCNC(=O)c1nn(-c2ccc(Cl)cc2Cl)c(-c2ccc(Cl)cc2)c1C [MF9725-133-25] | – | – | 7.54 | – | – | 81.7% | 97.9% | 69.6% | 3.67 | -20% | 7.34 | 7.72
6 | CCCCCCNC(=O)c1nn(-c2ccc(Cl)cc2Cl)c(-c2ccc(Cl)cc2)c1C [MF9725-132-25] | -13% | 4.53 | 7.78 | 7.74 | 7.97 | 87.3% | 98.6% | 77.9% | – | – | – | –
7 | Cc1c(C(=O)NC2CCCCC2)nn(-c2ccc(Cl)cc2Cl)c1-c1ccc(Cl)cc1 [MF9725-66-11] | -22.1% | 4.58 | 8.65 | 8.61 | 8.97 | 96.1% | 100% | 92.6% | – | – | – | –
